Data on three compounds can be found in patent publication US20220251610A1, “Prehydrolysate Fermentability in Biomass Pretreatment” (University of Cincinnati, priority 2021, published 2022).

One assay has as its system Saccharomyces cerevisiae. The assay is described as follows: Yeast fermentation of prehydrolysates from dilute acid pretreatment of aspen with nucleophilic additives. In kind it is cell-based. Particulars: for time at which glucose was completely consumed: 4% (w/w of dry biomass) additive in dilute acid pretreatment, glucose about 20 g/L; for final ethanol concentration / glucose consumption rate / volumetric ethanol productivity: 4% additive in pretreatment; for final ethanol concentration: 48 h fermentation; for glucose consumption rate / volumetric ethanol productivity: first 6 h of fermentation. On the procedure:
This analysis was carried out according to the NREL protocol. All pretreatment experiments were carried out in a Parr batch pressure vessel (model of 4520 of 2.0 L of capacity) (Parr Instrument Co., Moline, Ill.). […] All the pretreatment processes were conducted at 170° C. in 60 min. After pretreatment, the stirred reactor was quenched in a bucket with cold water. The slurry after pretreatment was separated into solid fraction and liquid fraction by vacuum filtration. The liquid fraction (prehydrolysates) was stored at 4° C. and used for subsequent analyses and fermentation. The pretreated substrates were washed with 560 mL warm water at least three times and collected by vacuum filtration. Fleischmann's pure dry yeast, Saccharomyces cerevisiae was stored at 4° C. and used for the ethanol fermentation. […] The concentration of yeast suspensions was determined by UV-spectrophotometer at 600 nm. […] Batch fermentation was taking place in a 250 mL flask with 50 mL prehydrolysates without any extra nutrients. […] Moreover, excessive CaCO3 was added to adjust the pH of prehydrolysates to 6. Then, the solution was filtered to remove CaCO3 and other impurities through the membrane filter (0.22 μm). All fermentation experiments were incubated at 30° C. and 150 rpm for 48 h in an incubator shaker (E24, New Brunswick Scientific). […] Fermentation was conducted in duplicate. The volumetric ethanol productivity (QEtOH) was calculated based on the produced ethanol in the first 6 h of fermentation as described previously. […] The sugar concentrations were detected by an Agilent 1260 HPLC system equipped with a Bio-Rad HPX-87P column (300×7.8 mm) connected to a refractive index detector (RID-10A). […] The column temperature and detector temperature were kept at 80, and 45° C., respectively. […] To examine whether adding nucleophilic additives in pretreatment can enhance prehydrolysate fermentability, cysteine, histidine, soy protein isolate (SPI) and bovine serum albumin (BSA) were added in the dilute acid pretreatment of aspen.

The conditions of assay [1]: Xylan 1.67 g/L; cited from earlier work.

`N[C@@H](CS)C(=O)O` [cysteine]: in the assay on Saccharomyces cerevisiae, the “time at which glucose was completely consumed” value came out at 24 h, the final ethanol concentration is 8.87 g/L, the glucose consumption rate is on record as 1.35 g/L/h and the volumetric ethanol productivity amounted to 0.51 g/L/h.

`N[C@@H](Cc1c[nH]cn1)C(=O)O` [histidine]: in the assay with Saccharomyces cerevisiae, the “time at which glucose was completely consumed” value was found to be 6 h, the final ethanol concentration came to 8.69 g/L, the glucose consumption rate came out at 3.22 g/L/h and the volumetric ethanol productivity was 1.44 g/L/h.

Xylan: the “reduction of the initial hydrolysis rate of Avicel” value in assay [1] was 34.5%.
